Legend:
Assay in all cases: SILAC proteomics / in-gel fluorescence, competition of probe 13-t labeling by 3a
[1] = molecular target: T1, proteins of HEK293T cells transiently overexpressing caspase-6 (Homo sapiens, UniProt P30084)
T1 sequence (P30084 28-290): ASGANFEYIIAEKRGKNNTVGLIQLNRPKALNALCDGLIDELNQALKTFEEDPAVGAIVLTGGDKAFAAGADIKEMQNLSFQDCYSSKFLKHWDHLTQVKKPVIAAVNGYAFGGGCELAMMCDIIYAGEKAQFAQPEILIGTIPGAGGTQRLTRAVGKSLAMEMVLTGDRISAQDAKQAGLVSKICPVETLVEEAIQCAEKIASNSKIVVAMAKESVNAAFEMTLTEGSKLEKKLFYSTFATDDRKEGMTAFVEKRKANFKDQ

[2] = molecular target: proteins of HEK293T cells transiently overexpressing caspase-6 (Homo sapiens, UniProt P57088); conditions: Comp; protein TMEM33 P57088
[3] = molecular target: proteins of HEK293T cells transiently overexpressing caspase-6 (Homo sapiens, UniProt P07437); conditions: Comp; protein TUBB P07437
[4] = molecular target: proteins of HEK293T cells transiently overexpressing caspase-6 (Homo sapiens, UniProt Q99460)
[5] = molecular target: proteins of HEK293T cells transiently overexpressing caspase-6 (Homo sapiens, UniProt Q15393); conditions: Comp; protein SF3B3 Q15393
[6] = molecular target: proteins of HEK293T cells transiently overexpressing caspase-6 (Homo sapiens, UniProt P83731); conditions: Comp; protein RPL24 P83731
[7] = molecular target: proteins of HEK293T cells transiently overexpressing caspase-6 (Homo sapiens, UniProt P09211)
[8] = molecular target: proteins of HEK293T cells transiently overexpressing caspase-6 (Homo sapiens, UniProt P13797); conditions: Comp; protein PLS3 P13797
[9] = molecular target: proteins of HEK293T cells transiently overexpressing caspase-6 (Homo sapiens, UniProt P46060); conditions: Comp; protein RANGAP1 P46060
[10] = molecular target: T2, proteins of HEK293T cells transiently overexpressing caspase-6 (Homo sapiens, UniProt P08243)
T2 sequence (P08243 1-561): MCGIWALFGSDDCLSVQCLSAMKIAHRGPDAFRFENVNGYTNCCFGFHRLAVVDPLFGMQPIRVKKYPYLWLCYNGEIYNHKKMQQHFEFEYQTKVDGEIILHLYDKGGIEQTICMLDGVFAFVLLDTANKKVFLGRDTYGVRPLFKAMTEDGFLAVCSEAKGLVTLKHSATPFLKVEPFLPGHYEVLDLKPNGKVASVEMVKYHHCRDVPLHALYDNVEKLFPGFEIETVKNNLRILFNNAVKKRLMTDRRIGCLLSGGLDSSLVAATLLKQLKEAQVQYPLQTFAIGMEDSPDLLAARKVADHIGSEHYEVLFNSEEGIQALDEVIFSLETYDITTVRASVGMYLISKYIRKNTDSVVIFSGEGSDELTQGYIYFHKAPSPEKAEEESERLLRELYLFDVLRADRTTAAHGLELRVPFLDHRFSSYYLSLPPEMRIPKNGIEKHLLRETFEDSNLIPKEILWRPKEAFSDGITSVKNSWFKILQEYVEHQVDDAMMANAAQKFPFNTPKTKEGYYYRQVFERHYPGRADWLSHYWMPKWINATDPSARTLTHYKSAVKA

[11] = molecular target: proteins of HEK293T cells transiently overexpressing caspase-6 (Homo sapiens, UniProt P40938); conditions: Comp; protein RFC3 P40938
[12] = molecular target: proteins of HEK293T cells transiently overexpressing caspase-6 (Homo sapiens, UniProt P62917); conditions: Comp; protein RPL8 P62917
[13] = molecular target: proteins of HEK293T cells transiently overexpressing caspase-6 (Homo sapiens, UniProt Q07020); conditions: Comp; protein RPL18 Q07020
[14] = molecular target: proteins of HEK293T cells transiently overexpressing caspase-6 (Homo sapiens, UniProt P27708)
[15] = molecular target: proteins of HEK293T cells transiently overexpressing caspase-6 (Homo sapiens, UniProt P12268)
[16] = protein ECHS1 (P30084), Exp Comp, analysis C6, p 0.1250, 5 peptides
[17] = protein PSMD1 (Q99460), Exp Comp, analysis C6, p 0.1250, 4 peptides
[18] = protein GSTP1 (P09211), Exp Comp, analysis C6, p 0.5000, 2 peptides
[19] = protein ASNS (P08243), Exp Comp, analysis C6, p 0.1250, 4 peptides
[20] = protein CAD (P27708), Exp Comp, analysis C6, p 0.5000, 2 peptides
[21] = protein IMPDH2 (P12268), Exp Comp, analysis C6, p 0.0078, 8 peptides

Chain of proteins of HEK293T cells transiently overexpressing caspase-6 (Homo sapiens, UniProt P27708) (P27708 whole entry): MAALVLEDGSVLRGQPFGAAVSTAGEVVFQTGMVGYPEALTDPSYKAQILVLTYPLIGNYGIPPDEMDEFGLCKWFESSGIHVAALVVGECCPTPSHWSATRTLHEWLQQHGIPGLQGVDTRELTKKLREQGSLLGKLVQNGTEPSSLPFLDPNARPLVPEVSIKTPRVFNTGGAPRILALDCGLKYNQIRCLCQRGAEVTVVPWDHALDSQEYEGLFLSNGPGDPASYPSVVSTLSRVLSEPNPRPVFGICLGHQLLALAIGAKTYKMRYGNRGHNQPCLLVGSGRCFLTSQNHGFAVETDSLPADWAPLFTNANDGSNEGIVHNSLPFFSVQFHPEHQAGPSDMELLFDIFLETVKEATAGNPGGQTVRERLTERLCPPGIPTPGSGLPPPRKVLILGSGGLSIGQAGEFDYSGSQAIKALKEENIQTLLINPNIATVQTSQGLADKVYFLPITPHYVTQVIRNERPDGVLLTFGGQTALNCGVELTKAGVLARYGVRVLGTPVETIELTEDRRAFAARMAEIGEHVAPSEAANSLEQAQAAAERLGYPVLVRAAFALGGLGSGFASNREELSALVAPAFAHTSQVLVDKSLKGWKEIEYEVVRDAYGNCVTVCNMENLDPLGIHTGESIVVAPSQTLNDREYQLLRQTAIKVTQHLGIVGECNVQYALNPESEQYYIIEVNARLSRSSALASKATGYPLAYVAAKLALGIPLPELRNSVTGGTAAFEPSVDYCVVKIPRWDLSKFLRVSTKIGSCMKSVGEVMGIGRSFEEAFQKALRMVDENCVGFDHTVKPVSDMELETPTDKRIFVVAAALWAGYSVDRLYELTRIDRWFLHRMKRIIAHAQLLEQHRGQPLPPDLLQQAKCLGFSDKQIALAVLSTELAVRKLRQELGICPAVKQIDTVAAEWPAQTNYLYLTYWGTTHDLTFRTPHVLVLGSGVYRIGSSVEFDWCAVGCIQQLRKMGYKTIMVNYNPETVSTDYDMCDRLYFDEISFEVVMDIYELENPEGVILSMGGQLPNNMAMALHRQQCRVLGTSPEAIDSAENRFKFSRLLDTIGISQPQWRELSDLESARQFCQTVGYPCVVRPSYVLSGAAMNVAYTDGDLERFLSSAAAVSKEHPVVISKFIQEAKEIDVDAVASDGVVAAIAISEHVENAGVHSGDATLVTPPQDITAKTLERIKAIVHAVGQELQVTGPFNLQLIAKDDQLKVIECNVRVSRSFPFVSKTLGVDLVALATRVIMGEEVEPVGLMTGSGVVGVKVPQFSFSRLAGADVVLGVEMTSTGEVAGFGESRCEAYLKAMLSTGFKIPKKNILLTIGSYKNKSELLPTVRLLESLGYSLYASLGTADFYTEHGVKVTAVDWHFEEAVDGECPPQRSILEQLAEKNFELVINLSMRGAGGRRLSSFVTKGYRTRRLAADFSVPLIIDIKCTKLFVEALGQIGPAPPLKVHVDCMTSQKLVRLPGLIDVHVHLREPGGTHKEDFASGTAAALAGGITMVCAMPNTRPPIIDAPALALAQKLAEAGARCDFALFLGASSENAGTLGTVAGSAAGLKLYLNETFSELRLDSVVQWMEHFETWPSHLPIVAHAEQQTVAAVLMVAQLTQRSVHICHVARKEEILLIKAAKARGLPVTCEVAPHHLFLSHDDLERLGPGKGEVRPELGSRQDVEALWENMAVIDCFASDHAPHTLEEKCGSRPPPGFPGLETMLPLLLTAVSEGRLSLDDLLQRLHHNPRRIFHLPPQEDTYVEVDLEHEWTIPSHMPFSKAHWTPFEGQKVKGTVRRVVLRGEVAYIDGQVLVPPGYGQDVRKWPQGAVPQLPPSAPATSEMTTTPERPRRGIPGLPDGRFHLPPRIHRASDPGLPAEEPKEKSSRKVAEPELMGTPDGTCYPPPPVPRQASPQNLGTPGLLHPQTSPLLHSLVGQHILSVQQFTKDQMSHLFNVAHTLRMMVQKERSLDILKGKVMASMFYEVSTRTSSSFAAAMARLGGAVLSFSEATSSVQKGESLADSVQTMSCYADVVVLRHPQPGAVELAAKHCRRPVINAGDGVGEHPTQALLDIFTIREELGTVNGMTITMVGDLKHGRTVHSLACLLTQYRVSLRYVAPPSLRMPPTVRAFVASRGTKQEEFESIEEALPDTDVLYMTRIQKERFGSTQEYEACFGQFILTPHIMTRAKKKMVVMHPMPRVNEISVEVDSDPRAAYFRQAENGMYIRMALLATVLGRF
Chain of proteins of HEK293T cells transiently overexpressing caspase-6 (Homo sapiens, UniProt Q99460) (Q99460 whole entry): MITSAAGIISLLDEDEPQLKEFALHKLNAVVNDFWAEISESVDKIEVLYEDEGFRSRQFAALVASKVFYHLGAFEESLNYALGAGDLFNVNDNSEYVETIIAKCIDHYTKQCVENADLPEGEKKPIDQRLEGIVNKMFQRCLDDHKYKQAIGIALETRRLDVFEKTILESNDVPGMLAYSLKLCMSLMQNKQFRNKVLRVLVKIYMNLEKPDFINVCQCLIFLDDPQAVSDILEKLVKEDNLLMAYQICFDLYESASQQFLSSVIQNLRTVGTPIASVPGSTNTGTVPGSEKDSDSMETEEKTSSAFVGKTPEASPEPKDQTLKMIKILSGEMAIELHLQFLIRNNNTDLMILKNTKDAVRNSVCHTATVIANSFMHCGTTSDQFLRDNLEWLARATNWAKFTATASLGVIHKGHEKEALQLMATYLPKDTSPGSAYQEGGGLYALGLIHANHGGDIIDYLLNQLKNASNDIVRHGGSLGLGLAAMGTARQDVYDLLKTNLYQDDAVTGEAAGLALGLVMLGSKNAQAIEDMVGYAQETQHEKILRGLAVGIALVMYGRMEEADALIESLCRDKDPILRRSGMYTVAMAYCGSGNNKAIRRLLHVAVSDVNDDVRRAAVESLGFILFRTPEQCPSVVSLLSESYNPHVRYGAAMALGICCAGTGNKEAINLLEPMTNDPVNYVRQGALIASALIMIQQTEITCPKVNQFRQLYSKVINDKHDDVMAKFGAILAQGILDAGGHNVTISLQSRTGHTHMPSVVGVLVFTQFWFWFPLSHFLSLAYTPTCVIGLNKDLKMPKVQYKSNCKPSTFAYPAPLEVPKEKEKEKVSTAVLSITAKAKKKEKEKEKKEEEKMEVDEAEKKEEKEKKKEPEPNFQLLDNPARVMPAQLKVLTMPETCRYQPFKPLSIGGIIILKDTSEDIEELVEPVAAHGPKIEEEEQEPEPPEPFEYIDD
Chain of proteins of HEK293T cells transiently overexpressing caspase-6 (Homo sapiens, UniProt P09211) (P09211 whole entry): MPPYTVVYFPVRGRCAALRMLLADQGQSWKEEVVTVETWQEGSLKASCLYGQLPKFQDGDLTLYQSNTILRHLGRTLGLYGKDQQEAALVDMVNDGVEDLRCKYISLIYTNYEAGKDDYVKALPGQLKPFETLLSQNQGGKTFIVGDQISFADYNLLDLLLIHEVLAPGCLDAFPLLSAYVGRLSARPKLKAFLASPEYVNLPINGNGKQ
Chain of proteins of HEK293T cells transiently overexpressing caspase-6 (Homo sapiens, UniProt P40938) (P40938 whole entry): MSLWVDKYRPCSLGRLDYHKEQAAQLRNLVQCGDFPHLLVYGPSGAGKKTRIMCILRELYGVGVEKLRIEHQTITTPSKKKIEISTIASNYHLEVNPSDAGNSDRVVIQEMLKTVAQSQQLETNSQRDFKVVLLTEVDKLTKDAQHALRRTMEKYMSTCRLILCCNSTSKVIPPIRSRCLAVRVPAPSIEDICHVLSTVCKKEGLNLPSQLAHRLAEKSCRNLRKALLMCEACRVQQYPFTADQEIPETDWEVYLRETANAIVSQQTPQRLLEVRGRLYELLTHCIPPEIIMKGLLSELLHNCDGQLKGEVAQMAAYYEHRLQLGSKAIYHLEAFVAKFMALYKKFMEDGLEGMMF
Chain of proteins of HEK293T cells transiently overexpressing caspase-6 (Homo sapiens, UniProt P46060) (P46060 whole entry): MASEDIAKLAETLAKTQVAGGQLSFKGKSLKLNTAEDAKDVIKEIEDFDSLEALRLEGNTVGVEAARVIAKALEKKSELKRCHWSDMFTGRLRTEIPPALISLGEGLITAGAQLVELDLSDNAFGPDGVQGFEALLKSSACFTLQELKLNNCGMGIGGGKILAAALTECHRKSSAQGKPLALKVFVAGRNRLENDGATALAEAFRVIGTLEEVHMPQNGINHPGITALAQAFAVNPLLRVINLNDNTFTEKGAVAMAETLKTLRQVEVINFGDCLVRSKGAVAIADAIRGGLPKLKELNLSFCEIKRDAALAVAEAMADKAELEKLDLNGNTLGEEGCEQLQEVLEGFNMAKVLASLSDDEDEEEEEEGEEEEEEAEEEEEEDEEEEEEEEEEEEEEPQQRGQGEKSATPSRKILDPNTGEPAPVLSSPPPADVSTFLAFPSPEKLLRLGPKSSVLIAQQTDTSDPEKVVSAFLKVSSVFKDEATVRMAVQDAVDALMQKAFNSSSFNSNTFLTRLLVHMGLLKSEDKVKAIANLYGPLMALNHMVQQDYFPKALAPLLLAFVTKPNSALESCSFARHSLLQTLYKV
Chain of proteins of HEK293T cells transiently overexpressing caspase-6 (Homo sapiens, UniProt P57088) (P57088 whole entry): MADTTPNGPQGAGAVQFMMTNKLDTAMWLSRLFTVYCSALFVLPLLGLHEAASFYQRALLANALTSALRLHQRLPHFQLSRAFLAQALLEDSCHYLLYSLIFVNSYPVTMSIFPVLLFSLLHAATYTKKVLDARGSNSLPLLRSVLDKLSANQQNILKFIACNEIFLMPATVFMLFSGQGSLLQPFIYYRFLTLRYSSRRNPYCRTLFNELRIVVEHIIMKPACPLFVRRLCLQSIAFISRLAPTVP
Chain of proteins of HEK293T cells transiently overexpressing caspase-6 (Homo sapiens, UniProt P07437) (P07437 whole entry): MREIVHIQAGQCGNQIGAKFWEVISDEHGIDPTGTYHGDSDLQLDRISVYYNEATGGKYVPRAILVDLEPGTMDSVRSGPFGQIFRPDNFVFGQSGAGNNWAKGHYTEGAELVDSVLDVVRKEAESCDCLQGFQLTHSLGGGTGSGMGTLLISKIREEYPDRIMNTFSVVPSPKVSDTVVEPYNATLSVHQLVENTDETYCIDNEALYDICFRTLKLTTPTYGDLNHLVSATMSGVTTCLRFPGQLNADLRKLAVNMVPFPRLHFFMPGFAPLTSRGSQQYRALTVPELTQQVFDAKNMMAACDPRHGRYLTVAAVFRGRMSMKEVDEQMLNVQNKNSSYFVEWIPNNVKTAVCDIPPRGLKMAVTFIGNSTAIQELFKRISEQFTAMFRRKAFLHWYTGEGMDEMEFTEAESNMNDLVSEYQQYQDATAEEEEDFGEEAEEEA

C=CS(=O)(=O)N1C[C@H](C(=O)Nc2ccc(OC(F)(F)F)cc2)C[C@@H](c2ccccc2)C1 [3a]
enrich.exp.med ([1]; Comp, protein ECHS1 P30084): 2.261
enrich.exp.med.lin [1, 16]: 4.794
enrich.exp.med.log2 [1, 16]: 2.261
enrich.exp.med [2]: 0.7492
enrich.exp.med [3]: 0.8512
enrich.exp.med ([4]; Comp, protein PSMD1 Q99460): 0.9459
enrich.exp.med.lin [4, 17]: 1.926
enrich.exp.med.log2 [4, 17]: 0.9459
enrich.exp.med [5]: 0.5835
enrich.exp.med [6]: 0.668
enrich.exp.med ([7]; Comp, protein GSTP1 P09211): 0.9589
enrich.exp.med.lin [7, 18]: 1.9438
enrich.exp.med.log2 [7, 18]: 0.9589
enrich.exp.med [8]: 0.6361
enrich.exp.med [9]: 0.6389
enrich.exp.med ([10]; Comp, protein ASNS P08243): 1.12
enrich.exp.med.lin [10, 19]: 2.174
enrich.exp.med.log2 [10, 19]: 1.12
enrich.exp.med [11]: 0.6326
enrich.exp.med [12]: 0.8074
enrich.exp.med [13]: 0.6186
enrich.exp.med ([14]; Comp, protein CAD P27708): 1.9642
enrich.exp.med.lin [14, 20]: 3.902
enrich.exp.med.log2 [14, 20]: 1.9642
enrich.exp.med ([15]; Comp, protein IMPDH2 P12268): 0.9888
enrich.exp.med.lin [15, 21]: 1.985
enrich.exp.med.log2 [15, 21]: 0.9888
